Results as given in PubChem BioAssay (NCI).
“And” between values parts separate entries of the source, which are not always exact repeats. Identical values can stand only once.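 Exposure lasted 48 hours, with cells grown in 96-well plates and compounds tested at five concentrations. Abbreviation: GI50, concentration required for 50% inhibition of growth. At the TGI there is no net growth.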

Tests used:
Assay in all cases: DTP human tumour cell line panel, 48 h
HT29 colon = system: HT29 colon
UO-31 renal = system: UO-31 renal
MOLT-4 leukemia = system: MOLT-4 leukemia
T-47D breast = system: T-47D breast
NCI-H226 lung = system: NCI-H226 lung
ACHN renal = system: ACHN renal
UACC-257 melanoma = system: UACC-257 melanoma
DU-145 prostate = system: DU-145 prostate
HCT-116 colon = system: HCT-116 colon
HCC-2998 colon = system: HCC-2998 colon

Row | SMILES | GI50 (HT29 colon) | TGI (HT29 colon) | GI50 (UO-31 renal) | TGI (UO-31 renal) | GI50 (MOLT-4 leukemia) | TGI (MOLT-4 leukemia) | GI50 (T-47D breast) | TGI (T-47D breast) | GI50 (NCI-H226 lung) | TGI (NCI-H226 lung) | GI50 (ACHN renal) | TGI (ACHN renal) | GI50 (UACC-257 melanoma) | TGI (UACC-257 melanoma) | GI50 (DU-145 prostate) | TGI (DU-145 prostate) | GI50 (HCT-116 colon) | TGI (HCT-116 colon) | TGI (HCC-2998 colon) | GI50 (HCC-2998 colon)
1 | CCOc1ccc2nc(SCc3nc4n(n3)S(=O)(=O)c3ccccc3N4C)sc2c1 | > 100 µM | > 100 µM | > 100 µM | > 100 µM | > 100 µM | > 100 µM | 81.6 µM | > 100 µM | > 100 µM | > 100 µM | > 100 µM | > 100 µM | > 100 µM | > 100 µM | > 100 µM | > 100 µM | 55.8 µM | > 100 µM |  | 
2 | COc1ccc(S(=O)(=O)Nc2ccccc2C(=O)O)cc1 |  | > 100 µM |  | > 100 µM |  | > 100 µM |  |  |  | > 100 µM |  | > 100 µM |  | > 100 µM |  |  |  |  | > 100 µM | 
3 | O=C1c2ccccc2-c2c1c1c(=O)[nH]c3ccccc3c1n2Cc1ccccc1 | > 100 µM | > 100 µM | > 100 µM | > 100 µM | > 100 µM | > 100 µM | 34.3 µM | > 100 µM | 24.5 µM | 67.4 µM | 13 µM | 25.6 µM | > 100 µM | > 100 µM | 43.8 µM | > 100 µM | 39.9 µM | > 100 µM |  | 
4 | CCOC(=O)C1N(S(=O)(=O)c2ccc(C)cc2)CCC12c1ccccc1N(C(C)=O)C2c1ccc(OC)c(OC)c1 (stereo not given) |  | > 100 µM |  | > 100 µM |  |  |  |  |  | > 100 µM |  | > 100 µM |  | > 100 µM |  |  |  | > 100 µM | > 100 µM | 
5 | CCCCCC[N+](C)(C)Cc1ccc(C[N+](C)(C)CCCCCC)cc1 |  | 16 µM |  | 29.8 µM |  |  |  |  |  | 20.4 µM |  | 24.8 µM |  | 35.5 µM |  |  |  | 12.8 µM | 27.9 µM | 
6 | CC(C)=CC(=O)C/C(=N\NC(N)=S)C(=O)Nc1ccc(Cl)cc1 |  | > 100 µM |  | > 100 µM |  | > 100 µM |  |  |  | > 100 µM |  | > 100 µM |  | > 100 µM |  |  |  | > 100 µM | > 100 µM | 
7 | COC(=O)/C=C1/CCC(C(=O)OC)N1 (stereo not given) |  |  |  | > 100 µM |  | > 100 µM |  |  |  |  |  | > 100 µM |  | > 100 µM |  |  |  | > 100 µM | > 100 µM | 
8 | Fc1ccc2[nH]cc(-c3nonc3-c3c[nH]c4ccc(Br)cc34)c2c1 | 2.01 µM | 4.03 µM | 1.39 µM | 4.36 µM |  |  |  |  | 2.13 µM | 5.3 µM | 2 µM | 8.42 µM | 4.17 µM | 13.8 µM | 3.57 µM | 13.2 µM | 1.84 µM | 4.23 µM | 3.83 µM | 1.89 µM
9 | c1cc(N(CCn2cccn2)CCn2cccn2)cc(N(CCn2cccn2)CCn2cccn2)c1 |  |  |  | > 100 µM |  | > 100 µM |  |  |  |  |  | > 100 µM |  | > 100 µM |  |  |  | > 100 µM | > 100 µM | 
10 | COC(=O)N(C(=O)OC)C(C(=O)O)C(C)C (stereo not given) |  | > 100 µM |  | > 100 µM |  |  |  |  |  | > 100 µM |  | > 100 µM |  | > 100 µM |  |  |  |  | > 100 µM | 
11 | Cc1[nH]c2ccccc2c1C(=O)CC1(O)C(=O)Nc2ccccc21 (stereo not given) |  | > 100 µM |  | > 100 µM |  | > 100 µM |  |  |  | > 100 µM |  | > 100 µM |  | > 100 µM |  |  |  | > 100 µM | > 100 µM | 
12 | C=C(COC(C)=O)CC(OC(C)=O)c1ccccc1 (stereo not given) |  | > 100 µM |  | > 100 µM |  | > 100 µM |  |  |  | > 100 µM |  | > 100 µM |  |  |  |  |  | > 100 µM | > 100 µM | 
13 | CCC[CH2][Sn]1([CH2]CCC)[O]CC(Cc2ccccc2)[O]1 (stereo not given) | 4.43 µM | 14.5 µM | 6.17 µM | 19 µM | 1.64 µM | 6.07 µM |  |  | 15.4 µM | 29.5 µM | 2.22 µM | 4.39 µM | 1.88 µM | 5.27 µM |  |  | 3.75 µM | 13.5 µM | 20.2 µM | 7.25 µM
14 | Cc1nc(Nc2ccc(Cl)cc2)sc1C(=O)NNc1ccc([N+](=O)[O-])cc1[N+](=O)[O-] |  |  |  | 27.2 µM |  | 46.7 µM |  |  |  | 32.6 µM |  | 40.9 µM |  | 31.3 µM |  |  |  | 26.7 µM | 30 µM | 
15 | COc1ccc(S(=O)(=O)N2CC(C)(C)CN(S(=O)(=O)c3ccc(OC)cc3)C2C(=O)NO)cc1 | > 20 µM | > 20 µM | > 11.5 µM | > 20 µM | > 11 µM | > 20 µM | > 20 µM | > 20 µM | > 17.1 µM | > 20 µM | > 20 µM | > 20 µM | > 19.1 µM | > 20 µM | > 20 µM | > 20 µM | > 20 µM | > 20 µM |  | 
16 | Cc1ccc(NC(=O)C2C(=O)N(c3ccc(C)cc3)C(=O)/C2=N\NC(N)=S)cc1 (stereo not given) |  | > 100 µM |  | > 100 µM |  | > 100 µM |  |  |  | > 100 µM |  | > 100 µM |  | > 100 µM |  |  |  | > 100 µM | > 100 µM | 
17 | Cc1cc2c(ccc3c(C)cc(=O)oc32)o1 |  | > 100 µM |  | > 100 µM |  | > 100 µM |  |  |  | > 100 µM |  | > 100 µM |  | > 100 µM |  |  |  | > 100 µM | > 100 µM | 
18 | CN(C)CC(C)(C)/C(=N\Nc1ccccc1)c1ccccc1 |  | > 100 µM |  | 29.3 µM |  | > 100 µM |  |  |  |  |  | 48.5 µM |  | > 100 µM |  |  |  | > 100 µM |  | 
19 | Nc1ccccc1C(=O)CC1OC(=O)c2ccccc21 (stereo not given) |  | > 100 µM |  | > 100 µM |  | > 100 µM |  | > 100 µM |  | > 100 µM |  | > 100 µM |  | > 100 µM |  | > 100 µM |  | > 100 µM |  | 
20 | CC(=O)[O][Ga]([Cl])[O]C(C)=O | > 100 µM | > 100 µM | > 100 µM | > 100 µM | > 100 µM | > 100 µM |  |  | > 100 µM | > 100 µM | > 100 µM | > 100 µM | > 100 µM | > 100 µM |  |  | > 100 µM | > 100 µM |  | 
21 | COc1cccc(-c2cc(=O)c3cc(OC)ccc3[nH]2)c1 |  | 1.42 µM | 0.484 µM | > 100 µM | 0.0411 µM |  |  |  | 0.121 µM | 1.57 µM and 7.23 µM | 0.661 µM | > 100 µM | 0.0325 µM | > 100 µM | 0.186 µM |  | 0.0541 µM | 22.6 µM | 2.59 µM and 0.443 µM | 0.118 µM
